From ChEMBL document CHEMBL1201862, “PubChem BioAssay data set” (2004)
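Briefly, cells in 96-well plates were exposed to five compound concentrations for 48 h, and endpoints were estimated by linear interpolation. GI50 is the concentration that inhibits growth by half.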 The source made the active and inactive calls. Cut-off read from the data, not from the text of the source: active = GI50 up to about 1.1 µM and inactive = higher.

Columns and labels:
Assay in all cases: growth of human tumour cells (NCI), 48 h
786-0 = tested on: 786-0
A549 = tested on: A549
CAKI-1 = tested on: CAKI-1
CCRF-CEM = tested on: CCRF-CEM
EKVX = tested on: EKVX
HL-60 = tested on: HL-60
IGROV-1 = tested on: IGROV-1
LOX IMVI = tested on: LOX IMVI
NCI-H226 = tested on: NCI-H226
OVCAR-4 = tested on: OVCAR-4
SR = tested on: SR
TK-10 = tested on: TK-10
NCI-H23 = tested on: NCI-H23
NCI-H522 = tested on: NCI-H522
BT-549 = tested on: BT-549
NCI/ADR-RES = tested on: NCI/ADR-RES
PC-3 = tested on: PC-3

| SMILES | GI50 (786-0) | GI50 (A549) | GI50 (CAKI-1) | GI50 (CCRF-CEM) | GI50 (EKVX) | GI50 (HL-60) | GI50 (IGROV-1) | GI50 (LOX IMVI) | GI50 (NCI-H226) | GI50 (OVCAR-4) | GI50 (SR) | GI50 (TK-10) | GI50 (NCI-H23) | GI50 (NCI-H522) | GI50 (BT-549) | GI50 (NCI/ADR-RES) | GI50 (PC-3) |
| --- | --- | --- | --- | --- | --- | --- | --- | --- | --- | --- | --- | --- | --- | --- | --- | --- | --- |
| NC(=O)c1ncn(C2OC(CO)C(O)C2O)c1O (stereo unspecified) | > 100 µM (inactive) | > 100 µM (inactive) | 83.4 µM (inactive) | > 100 µM (inactive) | > 100 µM (inactive) | 50.2 µM (inactive) | > 100 µM (inactive) | > 100 µM (inactive) | 54.6 µM (inactive) | > 100 µM (inactive) | 69 µM (inactive) | > 100 µM (inactive) |  |  |  |  |  |
| CCN(CC)C(=S)N/N=C(\C)c1ccccc1O | 26.2 µM (inactive) | 11.4 µM (inactive) | 18.4 µM (inactive) | 5 µM (inactive) | 36.4 µM (inactive) | 22.6 µM (inactive) | 24.5 µM (inactive) | 15.5 µM (inactive) | 20.7 µM (inactive) | > 100 µM (inactive) | 8.13 µM (inactive) | 62.1 µM (inactive) | 25 µM (inactive) | 8.57 µM (inactive) |  |  |  |
| Cn1cnc2[nH]c(=O)[nH]c(=S)c21 | > 100 µM (inactive) | > 100 µM (inactive) | > 100 µM (inactive) | > 100 µM (inactive) | > 100 µM (inactive) | > 100 µM (inactive) | > 100 µM (inactive) |  | > 100 µM (inactive) | > 100 µM (inactive) | > 100 µM (inactive) | > 100 µM (inactive) | > 100 µM (inactive) | > 100 µM (inactive) |  |  |  |
| Nc1ccc(C(=O)N/C(=C\C=C\c2ccco2)c2nc3c4c(ccc3[nH]2)C(=O)c2ccccc2C4=O)cc1 | 30.3 µM (inactive) | 21 µM (inactive) | 24.6 µM (inactive) | 1.09 µM (active) | 28.1 µM (inactive) |  | 21.4 µM (inactive) | 25.5 µM (inactive) |  | 52.4 µM (inactive) |  | 23.1 µM (inactive) | 41.5 µM (inactive) | 15.8 µM (inactive) |  |  |  |
| O=C1C(c2ccccc2)=C(c2ccccc2)C(c2ccc(Cc3ccc(C4=C(c5ccccc5)C(=O)C(c5ccccc5)=C4c4ccccc4)cc3)cc2)=C1c1ccccc1 | > 100 µM (inactive) | > 100 µM (inactive) | > 100 µM (inactive) | > 100 µM (inactive) | > 100 µM (inactive) | > 100 µM (inactive) | > 100 µM (inactive) | > 100 µM (inactive) | 50.6 µM (inactive) | > 100 µM (inactive) | > 100 µM (inactive) | 48.6 µM (inactive) | > 100 µM (inactive) | > 100 µM (inactive) |  |  |  |
| COC(=O)C(=O)C(C#N)c1ccc(Cl)c(Cl)c1 (stereo unspecified) | > 100 µM (inactive) | > 100 µM (inactive) | > 100 µM (inactive) | > 100 µM (inactive) | 64.3 µM (inactive) | > 100 µM (inactive) | > 100 µM (inactive) | > 100 µM (inactive) | > 100 µM (inactive) |  | > 100 µM (inactive) | > 100 µM (inactive) | > 100 µM (inactive) | > 100 µM (inactive) |  |  |  |
| NC(CCCCN/C=C1/N=C(c2ccccc2)OC1=O)C(=O)O (stereo unspecified) | > 100 µM (inactive) | > 100 µM (inactive) |  | 52 µM (inactive) | > 100 µM (inactive) | > 100 µM (inactive) | > 100 µM (inactive) | > 100 µM (inactive) | > 100 µM (inactive) | > 100 µM (inactive) | > 100 µM (inactive) | > 100 µM (inactive) | > 100 µM (inactive) | 26.1 µM (inactive) |  |  |  |
| COC(=O)NC(=O)c1cn(C2OC(CO)C(O)C2O)c(=O)[nH]c1=O (stereo unspecified) | > 100 µM (inactive) | > 100 µM (inactive) | > 100 µM (inactive) |  |  | > 100 µM (inactive) | > 100 µM (inactive) | > 100 µM (inactive) | > 100 µM (inactive) | > 100 µM (inactive) | > 100 µM (inactive) | > 100 µM (inactive) | > 100 µM (inactive) | > 100 µM (inactive) |  |  |  |
| CN(C)CCNC(=O)c1c2ccccc2cc2ccccc12 | 57 µM (inactive) | 34.6 µM (inactive) |  | 31.1 µM (inactive) | > 100 µM (inactive) | 25.4 µM (inactive) | 41 µM (inactive) | 13.5 µM (inactive) | 12 µM (inactive) | 31 µM (inactive) | 0.473 µM (active) | 30.5 µM (inactive) | 41.4 µM (inactive) |  |  |  |  |
| NNC(=O)C(=O)N/N=C(\CCC(=O)Nc1ccc(Cl)cc1)Cc1nc2ccccc2s1 | 17.3 µM (inactive) | 45.4 µM (inactive) | 38.2 µM (inactive) | 3.32 µM (inactive) | 27.4 µM (inactive) | 4.34 µM (inactive) | 13.6 µM (inactive) | 17.7 µM (inactive) | > 100 µM (inactive) |  | 11.9 µM (inactive) | 56.1 µM (inactive) | 30.9 µM (inactive) | 15.5 µM (inactive) |  |  |  |
| c1ccc(C2=NN(c3ccccc3)C3(S2)SC(c2ccccc2)(c2ccccc2)c2ccccc23)cc1 (stereo unspecified) | > 100 µM (inactive) | > 100 µM (inactive) | > 100 µM (inactive) | > 100 µM (inactive) | > 100 µM (inactive) | 0.804 µM (active) | > 100 µM (inactive) | > 100 µM (inactive) | > 100 µM (inactive) | > 100 µM (inactive) |  | > 100 µM (inactive) | > 100 µM (inactive) | > 100 µM (inactive) |  |  |  |
| Cc1cc(NS(=O)(=O)c2ccc(/N=N/c3c(O)c(C(=O)O)cc4ccccc34)cc2)nc(C)n1 | > 100 µM (inactive) | > 100 µM (inactive) | > 100 µM (inactive) | > 100 µM (inactive) | > 100 µM (inactive) | > 100 µM (inactive) | > 100 µM (inactive) |  | > 100 µM (inactive) | > 100 µM (inactive) | > 100 µM (inactive) | > 100 µM (inactive) |  | > 100 µM (inactive) | > 100 µM (inactive) | > 100 µM (inactive) | > 100 µM (inactive) |
| CC(=O)NNc1nc(C)c(C(=O)/C=C/c2ccccc2Cl)s1 | > 100 µM (inactive) | > 100 µM (inactive) | > 100 µM (inactive) | > 100 µM (inactive) | > 100 µM (inactive) | > 100 µM (inactive) | > 100 µM (inactive) | > 100 µM (inactive) | > 100 µM (inactive) |  |  | > 100 µM (inactive) | > 100 µM (inactive) | 43.5 µM (inactive) |  |  |  |
| OCCN(CCO)c1cccc(N(CCO)CCO)c1 | > 100 µM (inactive) | > 100 µM (inactive) | > 100 µM (inactive) | > 100 µM (inactive) | > 100 µM (inactive) | > 100 µM (inactive) |  | > 100 µM (inactive) |  | > 100 µM (inactive) | > 100 µM (inactive) | > 100 µM (inactive) | > 100 µM (inactive) | > 100 µM (inactive) |  |  |  |
| O=C(CC1C(=O)Nc2ccccc2[S+]1[O-])Nc1ccc(Cl)cc1 (stereo unspecified) | 39 µM (inactive) | > 100 µM (inactive) | > 100 µM (inactive) |  |  | 46.9 µM (inactive) | 41.3 µM (inactive) | > 100 µM (inactive) | > 100 µM (inactive) | 49 µM (inactive) | 32.4 µM (inactive) | > 100 µM (inactive) | 35.2 µM (inactive) | > 100 µM (inactive) |  |  |  |
